Test results published in publication PMC11703214 (bioRxiv, 2024).

Tests used:
Type in all cases: cell-based
iAChSnFR = assay: Fluorescence imaging; details: read-out: EC50 (μM), normalized dose-response curves, HEK293T; n = 3
gACh3.0 = assay: Fluorescence imaging; details: read-out: EC50 (μM), normalized dose-response curves, HEK293T; n = 3
β-arrestin pathway = assay: Tango assay; details: ACh 0.01 nM to 100 μM
G protein pathway = assay: Luciferase complementation assay; details: ACh 0.1 nM to 100 μM

**Q.** Which EC50 (iAChSnFR) does the source give for `CC(=O)OCC[N+](C)(C)C` [ACh, acetylcholine] here?
**A.** 8.8 µM

**Q.** What about the EC50 (gACh3.0) of the same compound?
**A.** 2.2 µM

**Q.** With “wild-type human M3R: wild-type human type 3 muscarinic ACh receptor, positive control for downstream coupling” as the compound, how does the “coupling to β-arrestin pathway” value (β-arrestin pathway) read?
**A.** robust coupling

**Q.** What about the “coupling to G protein pathway” value (G protein pathway) of the same compound?
**A.** robust coupling
